Measurements as given in PubChem BioAssay (NCI).
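Protocol summary: plate cells (96-well), add compound at 5 concentrations, incubate 48 h, interpolate endpoints linearly. GI50 marks 50% less growth. The concentration for full growth arrest is given as TGI.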 Where a SMILES comes first, the peptide text is derived from it. [ ]: non-standard residue; d: D form. The star is where a group is joined. ξ: configuration not given here. NMeF = CN[CH](Cc1ccccc1)C(=O)O; ξNMe2Val = CC(C)C(C(=O)*)N(C)C; NMeV = CN[CH](C(=O)O)C(C)C; OtBu = CC(C)(C)O*

Columns and labels:
Assay in all cases: NCI-60 cell line screen, 48 h
CCRF-CEM leukemia = system: CCRF-CEM leukemia
OVCAR-4 ovarian = system: OVCAR-4 ovarian
SK-MEL-2 melanoma = system: SK-MEL-2 melanoma
SN12C renal = system: SN12C renal
DU-145 prostate = system: DU-145 prostate
HL-60(TB) leukemia = system: HL-60(TB) leukemia
HS 578T breast = system: HS 578T breast
RXF 393 renal = system: RXF 393 renal
MDA-N = system: MDA-N
SR leukemia = system: SR leukemia

COc1ccc([C@H]2CC3C(=O)N(c4ccc(OC)cc4)C(=O)C3c3[nH]c4ccccc4c32)cc1 (some centres not stated)
TGI (CCRF-CEM leukemia): > 100 µM
TGI (OVCAR-4 ovarian): > 100 µM
TGI (SK-MEL-2 melanoma): > 100 µM
TGI (SN12C renal): > 100 µM

COc1ccc2c3/c(=C\c4ccc(N(C)C)cc4)c4ccccc4n3[n+](C)c2c1
GI50 (CCRF-CEM leukemia): 51 nM
TGI (CCRF-CEM leukemia): 2.09 µM
GI50 (DU-145 prostate): 236 nM
TGI (DU-145 prostate): 1.81 µM
GI50 (HL-60(TB) leukemia): 51 nM
GI50 (HS 578T breast): 162 nM
GI50 (OVCAR-4 ovarian): 987 nM
TGI (OVCAR-4 ovarian): 6.46 µM
GI50 (RXF 393 renal): 60.3 nM
TGI (RXF 393 renal): 1.04 µM

CN(C)CCCn1c(Cn2nc3ccccc3n2)nc2cc(C(F)(F)F)ccc21
TGI (CCRF-CEM leukemia): 39.5 µM
TGI (DU-145 prostate): > 100 µM
TGI (HL-60(TB) leukemia): 16.5 µM
TGI (HS 578T breast): > 100 µM
TGI (MDA-N): 35.6 µM
TGI (OVCAR-4 ovarian): > 100 µM
TGI (RXF 393 renal): > 100 µM
TGI (SK-MEL-2 melanoma): 43.5 µM
TGI (SN12C renal): > 100 µM

N#COc1ccc(Oc2ccc(OC#N)cc2)cc1
TGI (CCRF-CEM leukemia): 50.4 µM
TGI (HL-60(TB) leukemia): > 100 µM
TGI (OVCAR-4 ovarian): > 100 µM
TGI (RXF 393 renal): > 100 µM
TGI (SK-MEL-2 melanoma): > 100 µM
TGI (SN12C renal): > 100 µM
TGI (SR leukemia): 50.1 µM

O=c1[nH]cnc2c1cnn2Cc1cnnn1COCCO
TGI (DU-145 prostate): > 100 µM
TGI (HL-60(TB) leukemia): > 100 µM
TGI (HS 578T breast): > 100 µM
TGI (OVCAR-4 ovarian): > 100 µM
TGI (RXF 393 renal): > 100 µM
TGI (SK-MEL-2 melanoma): > 100 µM
TGI (SN12C renal): > 100 µM

O=c1[nH]c2ccc(CC(=S)N3CCOCC3)cc2o1
TGI (CCRF-CEM leukemia): > 100 µM
TGI (HL-60(TB) leukemia): > 100 µM
TGI (HS 578T breast): > 100 µM
TGI (RXF 393 renal): > 100 µM
TGI (SK-MEL-2 melanoma): > 100 µM
TGI (SR leukemia): > 100 µM

NC(=O)/N=C/c1c(O)c2ccccc2oc1=O
TGI (CCRF-CEM leukemia): > 100 µM
TGI (HL-60(TB) leukemia): > 100 µM
TGI (OVCAR-4 ovarian): > 100 µM
TGI (RXF 393 renal): 82.4 µM
TGI (SK-MEL-2 melanoma): > 100 µM
TGI (SN12C renal): > 100 µM

O=C1c2cccnc2-c2nccc3c2c1nc1ccccc13
TGI (CCRF-CEM leukemia): 10.2 µM
TGI (DU-145 prostate): 0.962 µM
TGI (HS 578T breast): 2.26 µM
TGI (MDA-N): 0.359 µM
TGI (OVCAR-4 ovarian): 3.56 µM
TGI (RXF 393 renal): 0.459 µM
TGI (SK-MEL-2 melanoma): 0.525 µM
TGI (SN12C renal): 1.03 µM

CC(C)C(C(=O)N(C)C(Cc1ccccc1)C(=O)N(C)C(C(=O)N(C)C(C(=O)N1CCCC1C(=O)OC(C)(C)C)C(C)C)C(C)C)N(C)C (configuration not stated) (ξNMe2Val-[NMeF][NMeV][NMeV]P-OtBu; configuration not given here)
TGI (CCRF-CEM leukemia): > 100 µM
TGI (HL-60(TB) leukemia): 94.7 µM
TGI (SN12C renal): > 100 µM
TGI (SR leukemia): > 100 µM

CCN(CC)CCC1CCCCN1CC(=O)N1c2cc(Cl)ccc2NC(=O)CC1C (configuration not stated)
TGI (CCRF-CEM leukemia): > 100 µM
TGI (DU-145 prostate): > 100 µM
TGI (HL-60(TB) leukemia): > 100 µM
TGI (HS 578T breast): > 100 µM
TGI (MDA-N): > 100 µM
TGI (OVCAR-4 ovarian): > 100 µM
TGI (RXF 393 renal): > 100 µM
TGI (SK-MEL-2 melanoma): > 100 µM
TGI (SN12C renal): > 100 µM

O=c1/c(=C/c2ccccn2)sc2nc3cc4c(cc3n12)OCCO4
TGI (CCRF-CEM leukemia): > 100 µM
TGI (DU-145 prostate): > 100 µM
TGI (HS 578T breast): > 100 µM
TGI (MDA-N): > 100 µM
TGI (OVCAR-4 ovarian): > 100 µM
TGI (RXF 393 renal): > 100 µM
TGI (SK-MEL-2 melanoma): > 100 µM
TGI (SN12C renal): > 100 µM

COC(=O)c1c(O)ccc2c1c1c(n2Cc2cccc(C)c2)C(=O)c2ccccc2C1
TGI (CCRF-CEM leukemia): 36.8 µM
TGI (DU-145 prostate): > 75 µM
TGI (HL-60(TB) leukemia): > 75 µM
TGI (HS 578T breast): > 75 µM
TGI (OVCAR-4 ovarian): 25.3 µM
TGI (RXF 393 renal): 30 µM
TGI (SK-MEL-2 melanoma): > 75 µM
TGI (SN12C renal): 27.6 µM
TGI (SR leukemia): 29.4 µM

CCCCCCCCCCCC[N+]12CC[N+](C)(CC1)CC2
TGI (CCRF-CEM leukemia): 53.3 µM
TGI (HL-60(TB) leukemia): 40.4 µM
TGI (OVCAR-4 ovarian): > 100 µM
TGI (RXF 393 renal): 3.34 µM
TGI (SK-MEL-2 melanoma): > 100 µM
TGI (SN12C renal): > 100 µM
TGI (SR leukemia): 26.7 µM

COc1cccc(OC)c1NC(=O)C(=O)Nn1c(NNC(=O)c2ccncc2)nc2ccccc2c1=O
TGI (CCRF-CEM leukemia): > 100 µM
TGI (HL-60(TB) leukemia): > 100 µM
TGI (HS 578T breast): > 100 µM
TGI (MDA-N): > 100 µM
TGI (OVCAR-4 ovarian): > 100 µM
TGI (RXF 393 renal): > 100 µM
TGI (SK-MEL-2 melanoma): > 100 µM
TGI (SN12C renal): > 100 µM

CCN(C(=O)N[C@H](C(=O)N[C@@H](CSC)C(=O)N[C@@H](C)C(=O)OC)C(C)C)c1ccccc1
TGI (CCRF-CEM leukemia): 19.3 µM
TGI (DU-145 prostate): 31.2 µM
TGI (MDA-N): 36.2 µM
TGI (OVCAR-4 ovarian): 47.4 µM
TGI (RXF 393 renal): 32.2 µM
TGI (SK-MEL-2 melanoma): 37.8 µM
TGI (SN12C renal): 43.1 µM
TGI (SR leukemia): 18.2 µM

CSC(C1c2ccccc2N(C)c2[nH]c(=O)n(C)c(=O)c21)S(=O)(=O)c1ccc(C)cc1 (configuration not stated)
TGI (CCRF-CEM leukemia): > 100 µM
TGI (HL-60(TB) leukemia): > 100 µM
TGI (OVCAR-4 ovarian): > 100 µM
TGI (SK-MEL-2 melanoma): > 100 µM
TGI (SN12C renal): > 100 µM

O=c1[nH]c(=O)n(C2CC(O)C(CO)O2)cc1Br (configuration not stated)
TGI (CCRF-CEM leukemia): > 100 µM
TGI (DU-145 prostate): > 100 µM
TGI (HL-60(TB) leukemia): > 100 µM
TGI (HS 578T breast): > 100 µM
TGI (MDA-N): > 100 µM
TGI (OVCAR-4 ovarian): > 100 µM
TGI (RXF 393 renal): > 100 µM
TGI (SK-MEL-2 melanoma): > 100 µM
TGI (SN12C renal): > 100 µM

COC(=O)C(CCC1(C)OCCO1)=[N+]=[N-]
TGI (CCRF-CEM leukemia): > 100 µM
TGI (HL-60(TB) leukemia): > 100 µM
TGI (OVCAR-4 ovarian): > 100 µM
TGI (RXF 393 renal): > 100 µM
TGI (SK-MEL-2 melanoma): > 100 µM
TGI (SN12C renal): > 100 µM
TGI (SR leukemia): > 100 µM

Fc1ccc(C(OCCN2CCC3CCC(C2)N3C/C=C/c2cccs2)c2ccc(F)cc2)cc1 (configuration not stated)
TGI (CCRF-CEM leukemia): 26.7 µM
TGI (DU-145 prostate): 26 µM
TGI (HS 578T breast): 28.4 µM
TGI (MDA-N): 22 µM
TGI (OVCAR-4 ovarian): 22.5 µM
TGI (RXF 393 renal): 16.3 µM
TGI (SK-MEL-2 melanoma): 24.1 µM
TGI (SN12C renal): 18 µM

COc1ccc(-c2cc(-c3ccc(Nc4ccnc5cc(Cl)ccc45)cc3)[nH]c(=O)c2C#N)cc1
TGI (DU-145 prostate): > 100 µM
TGI (HL-60(TB) leukemia): > 100 µM
TGI (HS 578T breast): > 100 µM
TGI (OVCAR-4 ovarian): > 100 µM
TGI (RXF 393 renal): > 100 µM
TGI (SK-MEL-2 melanoma): > 100 µM
TGI (SR leukemia): > 100 µM

O=S(=O)(/N=C(\NO)Nc1ccc(Cl)cc1)c1cc2ccccc2s1
TGI (CCRF-CEM leukemia): 87.5 µM
TGI (DU-145 prostate): 49.2 µM
TGI (HL-60(TB) leukemia): 45.3 µM
TGI (HS 578T breast): 37.5 µM
TGI (MDA-N): 36.6 µM
TGI (OVCAR-4 ovarian): 37.9 µM
TGI (RXF 393 renal): 36 µM
TGI (SK-MEL-2 melanoma): 30.4 µM
TGI (SN12C renal): 33 µM

O=C1Nc2ccc(Cl)c(I)c2C1=O
TGI (CCRF-CEM leukemia): 57.4 µM
TGI (HL-60(TB) leukemia): 41.3 µM
TGI (OVCAR-4 ovarian): 32 µM
TGI (RXF 393 renal): 29.8 µM
TGI (SK-MEL-2 melanoma): 34.2 µM
TGI (SN12C renal): 30.9 µM
TGI (SR leukemia): 50.7 µM

CCOC(=O)N1CCC2(CC1)C[C@@](C(C)=O)(c1ccccc1)C(C)O2 (some centres not stated)
TGI (DU-145 prostate): > 100 µM
TGI (HL-60(TB) leukemia): > 100 µM
TGI (HS 578T breast): > 100 µM
TGI (MDA-N): > 100 µM
TGI (OVCAR-4 ovarian): > 100 µM
TGI (SK-MEL-2 melanoma): > 100 µM

COc1cc2c[n+](C)c3c4cc(OC)c(OCc5ccccc5)cc4c(OCc4ccccc4)cc3c2cc1OC
TGI (CCRF-CEM leukemia): 72.4 µM
TGI (DU-145 prostate): 45.7 µM
TGI (MDA-N): 12 µM
TGI (OVCAR-4 ovarian): > 55 µM
TGI (RXF 393 renal): 41.1 µM
TGI (SK-MEL-2 melanoma): 6.29 µM
TGI (SN12C renal): 33.2 µM
TGI (SR leukemia): 6 µM

COc1ccc(NC(=O)C(=O)Cc2ccc([N+](=O)[O-])c([N+](=O)[O-])c2CC(=O)C(=O)Nc2ccc(OC)cc2OC)c(OC)c1
TGI (CCRF-CEM leukemia): > 100 µM
TGI (HL-60(TB) leukemia): > 100 µM
TGI (OVCAR-4 ovarian): > 100 µM
TGI (RXF 393 renal): > 100 µM
TGI (SN12C renal): > 100 µM
TGI (SR leukemia): > 100 µM
